Usually IC50 stands for the point on the concentration scale where inhibition reaches its midpoint. A higher IC50 goes with lower potency.

Consider 13 compounds from patent US5464835A, “Use for bis-heterocyclic compounds and pharmaceutical compositions containing same” (Harbor Branch Oceanographic Institution, Inc., priority 1994, dated 1995).

Experiment [1] deals with bee venom phospholipase A2 (Apis mellifera, UniProt P00630). Description: biochemical. It counts as biochemical. The following applies: for inhibition at 1 µM: final concentration 1 μM; for inhibition at 1 µM / inhibition at 1.6 µM: read-out: % Inactivation of bee venom phospholipase A2; for inhibition at 1.6 µM: final concentration 1.6 μM.
Experiment [2] has as its system PMA-induced mouse ear edema. Put plainly: Mouse ear anti-inflammatory assay (topical inhibition of PMA-induced edema). The following applies: for percent inhibition of mouse ear edema (dose-response): FIG. 3; for % Inhibition of edema / ED50, topical inhibition of PMA-induced mouse ear edema: topical; for % Inhibition of edema: Table 3; for inhibition of PMA-induced edema / anti-inflammatory activity (in words): result in words; for ED50, topical inhibition of PMA-induced mouse ear edema: simultaneous with PMA, 3 h 20 min, Table 2; for percent inhibition of edema (dose-response): FIG. 2.
Description: A. Mouse ear anti-inflammatory assay. The test compound and a known inflammatory agent, phorbol myristate acetate (PMA), are topically applied simultaneously to the left ears of mice. Three hours and 20 minutes following application, the mice are sacrificed. Both left and right ears are removed and standard-sized bores taken. Edema (inflammation) is measured as the difference in weight between left and right ears (Van Arman, C. G. [1974] Clin. Pharmacol. Ther. 16:900-904).

Experiment [3] concerns Candida albicans. Put plainly: Antifungal activity against Candida albicans (MIC, RPMI-1640 growth medium). It counts as cell-based.

bee venom phospholipase A2, sequence (P00630 34-167 limits assumed): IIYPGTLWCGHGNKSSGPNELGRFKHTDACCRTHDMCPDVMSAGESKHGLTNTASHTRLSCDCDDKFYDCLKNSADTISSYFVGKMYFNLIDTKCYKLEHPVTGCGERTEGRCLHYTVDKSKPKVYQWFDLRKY

`O=C(c1nc(-c2c[nH]c3cc(Br)ccc23)c[nH]1)c1c[nH]c2cc(O)ccc12` [Bromotopsentin]: in experiment [1] (1 h), the inhibition at 1 µM is 33%. Moreover, the results for the “percent inhibition of mouse ear edema (dose-response)” value in experiment [2] (50 μg/ear) and in experiment [2] (approximately 25 μg/ear) were “about 75%” and “about 20%”, respectively. The “% Inhibition of edema” value in experiment [2] (dose 50 μg/ear) is on record as 75.4%. For the same compound, the “inhibition of PMA-induced edema / anti-inflammatory activity (in words)” value in experiment [2] is “significant potency”.

Turning to `CN1CC(c2c[nH]c3c(Br)c(Br)cc(O)c23)NCC1c1c[nH]c2cc(Br)ccc12` (stereo not shown) [Dragmacidin], the inhibition at 1 µM in experiment [1] (1 h) turned out to be 27%. Moreover, in experiment [2] (dose 50 μg/ear), the “% Inhibition of edema” value was 64.0%. The “inhibition of PMA-induced edema / anti-inflammatory activity (in words)” value in experiment [2] is given as “significant potency”.

For the compound `O=C1NC(c2c[nH]c3cc(Br)ccc23)CN=C1c1c[nH]c2cc(Br)ccc12` (stereo not shown) [Hamacanthin A], the inhibition at 1.6 µM in experiment [1] (1 h) is 37%. Also, the “antifungal activity (in words)” value in experiment [3] is on record as “active components”. The “% Inhibition of edema” value in experiment [2] (dose 50 μM (so in the source)) amounted to 50.0%.

On to `O=C1NCC(c2c[nH]c3cc(Br)ccc23)N=C1c1c[nH]c2cc(Br)ccc12` (stereo not shown) [Hamacanthin B], for which, in experiment [1] (1 h), the inhibition at 1.6 µM amounted to 32%. Further, the “antifungal activity (in words)” value in experiment [3] is “active components”. In experiment [2] (dose 50 μM (so in the source)), the “% Inhibition of edema” value was found to be 34.0%.

Regarding `C[C@]12CCC(=O)C=C1CC[C@@H]1[C@@H]2[C@@H](O)C[C@@]2(C)[C@H]1CC[C@]2(O)C(=O)CO` [Hydrocortisone, reference compound], in experiment [1], the IC50 is more than 1000 µM and the “inactivation of bee venom phospholipase A2 (in words)” value (“inactivation” below) was “inactive”. In experiment [2], the “ED50, topical inhibition of PMA-induced mouse ear edema” value (from here on “ED50, topical inhibition”) stood at 20 μg/ear.

On to `COc1ccc2c(c1)c(CC(=O)O)c(C)n2C(=O)c1ccc(Cl)cc1` [Indomethacin, reference compound], for which, in experiment [1], the 50% inhibitory concentration (IC50) was more than 1000 µM and the “inactivation” value is “inactive”. For the same compound, in experiment [2], the “ED50, topical inhibition” value came to 250 μg/ear.

Consider `CC1=C(CC/C(C)=C/CCC2=CC[C@H](C3=CC(=O)O[C@H]3O)O[C@H]2O)C(C)(C)CCC1` [Manoalide, reference compound], for which half-maximal inhibition in experiment [1] (IC50) required 0.05 µM. In addition, the “ED50, topical inhibition” value in experiment [2] worked out at 100 μg/ear.

For `Brc1ccc2c(-c3c[nH]c(-c4c[nH]c5cc(Br)ccc45)n3)c[nH]c2c1` [Nortopsentin A], the inhibition at 1 µM in experiment [1] (1 h) stood at 30%. In experiment [2] (dose 50 μg/ear), the “% Inhibition of edema” value is listed as 98.1%. Besides, in experiment [2], the “inhibition of PMA-induced edema / anti-inflammatory activity (in words)” value is “significant potency”.

On to `Brc1ccc2c(-c3nc(-c4c[nH]c5ccccc45)c[nH]3)c[nH]c2c1` [Nortopsentin B, nortopsentin B], for which, in experiment [1] (1 h), the inhibition at 1 µM stood at 27%. In addition, the “% Inhibition of edema” value in experiment [2] (dose 50 μg/ear) came out at 38.2%.

In the case of `Brc1ccc2c(-c3c[nH]c(-c4c[nH]c5ccccc45)n3)c[nH]c2c1` [Nortopsentin C, nortopsentin C], in experiment [1] (1 h), the inhibition at 1 µM was 26%. Besides, the “% Inhibition of edema” value in experiment [2] (dose 50 μg/ear) came out at 70.1%. Further, in experiment [2], the “inhibition of PMA-induced edema / anti-inflammatory activity (in words)” value is recorded as “significant potency”.

Take `CC(=O)Oc1ccc2c(C(=O)c3ncc(-c4c[nH]c5ccccc45)n3C(C)=O)c[nH]c2c1` [Topsentin diacetate, topsentin diacetate]: the inhibition at 1 µM in experiment [1] (1 h) stood at 32%. Further, the “% Inhibition of edema” value in experiment [2] (dose 50 μg/ear) was 42.6%. In addition, in experiment [2], the “inhibition of PMA-induced edema / anti-inflammatory activity (in words)” value was “moderate activity”.

Take `CC(=O)Oc1ccc2c(C(=O)c3ncc(-c4c[nH]c5ccccc45)[nH]3)c[nH]c2c1` [Topsentin monoacetate]: in experiment [1] (1 h), the inhibition at 1 µM was 42%. Further, in experiment [2] (dose 50 μg/ear), the “% Inhibition of edema” value stood at 45.8%. Also, the “inhibition of PMA-induced edema / anti-inflammatory activity (in words)” value in experiment [2] was “moderate activity”.

As for `O=C(c1nc(-c2c[nH]c3ccccc23)c[nH]1)c1c[nH]c2cc(O)ccc12` [Topsentin], in experiment [1], the IC50 was determined as 0.5 µM and the “inactivation” value is on record as “capable of the inactivation of bee venom phospholipase A2”. In addition, in experiment [1] (1 h, read-out: percent inactivation of bee venom phospholipase A2 (dose-response)), the inhibition at 2 µM was not above 80%. For the same compound, the inhibition at 1 µM in experiment [1] (1 h) stood at 67%. The “percent inhibition of edema (dose-response)” value in experiment [2] (100 μg/ear) was “more than 90%”. Further, the “percent inhibition of edema (dose-response)” value in experiment [2] (about 12 μg/ear) is approximately 50%. Also, the “% Inhibition of edema” value in experiment [2] (dose 50 μg/ear) turned out to be 70.6%. Also, in experiment [2], the “inhibition of PMA-induced edema / anti-inflammatory activity (in words)” value is given as “significant potency” and the “ED50, topical inhibition” value is reported as 15 μg/ear. Also, in experiment [2] (listed as topsentin), the “inhibition of PMA-induced edema / anti-inflammatory activity (in words)” value was “greater potency than to the known anti-inflammatories hydrocortisone, indomethacin, and manoalide”.
